The text below walks through data of ChEMBL document CHEMBL3508693 (2016).

Data set [1] is described as follows: Terminal elimination half-life of SPP100 following single oral dose of SPP100 75 mg capsule studied in healthy human. It counts as ADME, organism-based. To be noted: plasma.
Data set [2] can be described thus: Terminal elimination half-life of SPP100 following single oral dose of SPP100 150 mg capsule studied in healthy human. In kind it is ADME, organism-based. To be noted: plasma.
A short description of data set [3]: Oral clearance of SPP100 following single oral dose of SPP100 75 mg capsule studied in healthy human. It counts as ADME, organism-based. To be noted: plasma.
Data set [4] is described as follows: % SPP100 in urine and faeces following single oral dose of 300 mg [14C]SPP100 studied in healthy men. In kind it is ADME, organism-based, Urine/Feces. The conditions noted are these: human, in vivo, at 300 mg.
A short description of data set [5]: % SPP100 (0-72h) recovered in faeces following single oral dose of [14C] aliskiren hemifumarate at 3 mg.Kg-1 level in marmoset. To be noted: in vivo. It counts as ADME, organism-based, Callithrix jacchus, Feces.
In data set [6] the target is T1, CYP1A2 (Homo sapiens, UniProt P05177).
T1 sequence (P05177 whole entry): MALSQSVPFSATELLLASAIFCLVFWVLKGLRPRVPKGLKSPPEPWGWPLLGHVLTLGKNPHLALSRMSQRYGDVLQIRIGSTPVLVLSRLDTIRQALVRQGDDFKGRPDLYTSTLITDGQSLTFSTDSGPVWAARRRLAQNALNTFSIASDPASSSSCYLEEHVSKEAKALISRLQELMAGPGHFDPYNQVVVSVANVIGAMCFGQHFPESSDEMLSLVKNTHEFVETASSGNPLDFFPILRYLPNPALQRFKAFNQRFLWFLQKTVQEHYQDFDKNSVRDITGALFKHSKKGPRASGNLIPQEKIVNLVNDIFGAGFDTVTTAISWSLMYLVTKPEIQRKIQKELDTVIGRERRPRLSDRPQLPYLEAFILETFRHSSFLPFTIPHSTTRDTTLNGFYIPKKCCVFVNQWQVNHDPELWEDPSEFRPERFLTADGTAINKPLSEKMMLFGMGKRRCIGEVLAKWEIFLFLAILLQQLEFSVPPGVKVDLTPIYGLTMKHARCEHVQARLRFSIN
In words: Inhibitory activity of 20 uM SPP100 on 545 Pmoles of cDNA-derived CYP1A2 enzyme in microsome prepared from human lymphoblastoid cell line. In kind it is ADME, microsomes. Also on record: conc 20 uM, interact cpd conc 50 uM. To be noted: probe phenacetin.

The target of data set [7] is T1, CYP1A2. In words: Inhibitory activity of 20 uM SPP100 on 489 Pmoles of cDNA-derived CYP1A2 enzyme in microsome prepared from human lymphoblastoid cell line. In kind it is ADME, microsomes. Also noted: conc 20 uM, interact cpd conc 50 uM. To be noted: probe phenacetin.
Data set [8] in a line: Apparent terminal half-life (0-168h) of total radioactivity following single intravenous administration of [14C] aliskiren hemifumarate at 1 mg.Kg-1 level in marmoset. In kind it is ADME, organism-based, Callithrix jacchus, Plasma. The conditions noted are these: in vivo.
Data set [9] in a line: Excretion (168h) of radioactivity in faeces following intravenous administration of [14C] aliskiren hemifumarate at 10 mg.Kg-1 level in rat. It counts as ADME, organism-based, Lister-Hooded, Feces. To be noted: in vivo.
The nature of data set [10]: Excretion of radioactivity (0-24h) in urine following single intravenous dose of 10 mg.Kg-1 [14C] aliskiren hemifumarate in mouse. The conditions noted are these: in vivo. In kind it is ADME, organism-based, TgRasH2.
Data set [11] in a line: Excretion of radioactivity (0-24h) in faeces following single oral dose of 500 mg.Kg-1 [14C] aliskiren hemifumarate in mouse. In kind it is ADME, organism-based, TgRasH2, Feces. The conditions noted are these: in vivo.
The nature of data set [12]: Mean excretion of radioactivity (0-72h) in urine and faeces following single intravenous dose of 10 mg.Kg-1 [14C] aliskiren hemifumarate in mouse. It counts as ADME, organism-based, TgRasH2, Urine/Feces. To be noted: in vivo.
Data set [13] concerns the target Cytochrome P450 3A7 (Homo sapiens, UniProt P24462). In words: Metabolic clearance (ul.min.nmol-1 CYP) of aliskiren hemifumarate for CYP3A7 was determined in human liver microsome incubated with [14C]SPP100 hemifumarate. It counts as ADME. The conditions noted are these: microsomes. (Liver microsomes are vesicles of endoplasmic reticulum, rich in cytochrome P450 enzymes.)

A short description of data set [14]: Cmax of radioactivity following repeated oral administration of [14C] aliskiren hemifumarate at 100 mg.Kg-1 level studied after 2h of dosing on day 1 in rat. It counts as ADME, organism-based, Albino HAN:WIST. The conditions noted are these: in vivo, read-out: Cmax(1).
Data set [15] is described as follows: Concentration of radioactivity in the colon wall following repeated oral administration of [14C] aliskiren hemifumarate at 100 mg.Kg-1 level studied at 2h after 7th dose in rat. In kind it is ADME, organism-based, Albino HAN:WIST. To be noted: in vivo.
The nature of data set [16]: Concentration of radioactivity in the brown fat following repeated oral administration of [14C] aliskiren hemifumarate at 100 mg.Kg-1 level studied at 24h after 3rd dose in rat. In kind it is ADME, organism-based, Albino HAN:WIST, Brown adipose tissue. The conditions noted are these: in vivo.
Data set [17] in a line: Concentration of radioactivity in the kidney medulla following repeated oral administration of [14C] aliskiren hemifumarate at 100 mg.Kg-1 level studied at 2h after 3rd dose in rat. In kind it is ADME, organism-based, Albino HAN:WIST, Renal medulla. To be noted: in vivo.
Data set [18] is described as follows: AUC/dose (0-168h) of total radioactivity following single intravenous administration of [14C] aliskiren hemifumarate at 1 mg.Kg-1 level in marmoset. It counts as ADME, organism-based, Callithrix jacchus, Plasma. The conditions noted are these: in vivo.
Data set [19] is described as follows: Cmax of aliskiren hemifumarate following single dosing of SPP100B oral solution at 640 mg level studied on day 1 in men. It counts as ADME, organism-based. The conditions noted are these: male, human, plasma.
Data set [20] can be described thus: Tmax of aliskiren hemifumarate following single dosing of SPP100B oral solution at 640 mg level studied on day 1 in men. In kind it is ADME, organism-based. To be noted: male, human, plasma.
The nature of data set [21]: Cmax of aliskiren hemifumarate following 8 day once-daily dosing of SPP100B oral solution at 160 mg level studied on day 8 in men. It counts as ADME, organism-based. The conditions noted are these: male, human, plasma.
Data set [22] can be described thus: Cmax/dose (0-96h) of unlabeled aliskiren hemifumarate following intravenous administration of aliskiren hemifumarate at 10 mg.Kg-1 level in rat. In kind it is ADME, organism-based, Albino HAN:WIST, Plasma. To be noted: in vivo.
Data set [23] can be described thus: Effect of 2 week oral dosing of aliskiren hemifumarate at 50 mg.Kg-1 level on hematological parameter values in male Callithrix jacchus. It counts as toxicity, organism-based, Plasma. To be noted: marmoset, in vivo, 336 h.
The nature of data set [24]: Effect of 2 week oral dosing of aliskiren hemifumarate at 100 mg.Kg-1 level on blood urea nitrogen level in female Callithrix jacchus. In kind it is toxicity, organism-based, Plasma. To be noted: marmoset, 336 h.
Data set [25] is described as follows: Effect of 2 week oral dosing of aliskiren hemifumarate at 100 mg.Kg-1 level on plasma creatinine level in female Callithrix jacchus. In kind it is toxicity, organism-based. To be noted: marmoset, 336 h.
Data set [26] can be described thus: Cmax of aliskiren hemifumarate following 2 week oral dosing of aliskiren hemifumarate at 100 mg.Kg-1 level studied on day 14 in male Callithrix jacchus. It counts as ADME, organism-based. To be noted: marmoset, plasma.
A short description of data set [27]: Cmaxspec of aliskiren hemifumarate following 2 week oral dosing of aliskiren hemifumarate at 100 mg.Kg-1 level studied on day 1 in male Callithrix jacchus. In kind it is ADME, organism-based, Plasma. To be noted: marmoset, in vivo, 336 h.
Data set [28] in a line: Effect of 4 week oral dietary dosing of aliskiren hemifumarate at 500 mg.Kg-1 level on spermatogenesis in male mouse. It counts as toxicity, organism-based, CB6F1-TGrasH2, Testis. The conditions noted are these: in vivo, 672 h.
A short description of data set [29]: Tmax of aliskiren hemifumarate following 4 week oral dietary dosing of aliskiren hemifumarate at 1500 mg.Kg-1 level in male mouse. In kind it is ADME, organism-based. To be noted: CB6F1-TGrasH2, mouse, in vivo.
Data set [30] in a line: Tmax of aliskiren hemifumarate following 4 week oral dietary dosing of aliskiren hemifumarate at 1000 mg.Kg-1 level in female mouse. In kind it is ADME, organism-based. The conditions noted are these: CB6F1-TGrasH2, mouse, in vivo.
Data set [31] is described as follows: AUC (0-24h) of aliskiren hemifumarate following 4 week oral dietary dosing of aliskiren hemifumarate at 1000 mg.Kg-1 level in female mouse. It counts as ADME, organism-based. To be noted: CB6F1-TGrasH2, mouse, plasma.
The nature of data set [32]: AUC(0-24h) of aliskiren hemifumarate following 2 week oral dosing of aliskiren hemifumarate at 50 mg.Kg-1 level studied on day 1 in male Callithrix jacchus. In kind it is ADME, organism-based. The conditions noted are these: marmoset, plasma.
A short description of data set [33]: AUC(0-24h) of aliskiren hemifumarate following 2 week oral dosing of aliskiren hemifumarate at 100 mg.Kg-1 level studied on day 1 in female Callithrix jacchus. In kind it is ADME, organism-based. To be noted: marmoset, plasma.
Data set [34] is described as follows: AUCspec of aliskiren hemifumarate following 2 week oral dosing of aliskiren hemifumarate at 50 mg.Kg-1 level studied on day 1 in female Callithrix jacchus. To be noted: marmoset, in vivo, 336 h. In kind it is ADME, organism-based, Plasma.

Sequence of Cytochrome P450 3A7 (P24462 whole entry): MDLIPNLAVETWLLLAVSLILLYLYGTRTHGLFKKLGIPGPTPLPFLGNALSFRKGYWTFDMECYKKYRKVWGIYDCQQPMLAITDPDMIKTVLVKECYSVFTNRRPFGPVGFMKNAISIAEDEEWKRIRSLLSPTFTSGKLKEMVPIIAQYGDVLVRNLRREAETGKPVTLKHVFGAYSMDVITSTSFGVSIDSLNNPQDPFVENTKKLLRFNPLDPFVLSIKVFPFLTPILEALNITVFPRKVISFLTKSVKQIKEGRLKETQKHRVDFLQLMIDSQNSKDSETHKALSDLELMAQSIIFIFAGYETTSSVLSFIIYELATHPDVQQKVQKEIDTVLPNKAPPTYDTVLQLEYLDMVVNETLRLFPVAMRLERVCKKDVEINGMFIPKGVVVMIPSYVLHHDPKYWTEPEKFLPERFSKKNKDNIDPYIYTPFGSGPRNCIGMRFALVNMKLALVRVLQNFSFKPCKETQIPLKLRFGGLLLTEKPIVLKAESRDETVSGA

What is called half-life is the time needed for the level to fall by half in the phase considered. Higher therefore signals slow decline. One may read the CL/F as the apparent clearance, not corrected for the fraction that reaches the circulation. One may read the inhibition as the relative decrease from the control value, in per cent. In the case of `COCCCOc1cc(C[C@@H](C[C@H](N)[C@@H](O)C[C@H](C(=O)NCC(C)(C)C(N)=O)C(C)C)C(C)C)ccc1OC`, the half-life in data set [1] was 54 h; in [2] it was 41 h. The compound further gave a CL/F in data set [3] of 4900 mL/min. Also, the Compound recovery in data set [4] came to 79.8%; in data set [5] it was 78%. In addition, the figures for the inhibition at 20 µM in [6] and in [7] were -5.8% and 5%, respectively.
As usually defined, the Cmax is the highest concentration seen after dosing. With `COCCCOc1cc(C[C@@H](C[C@H](N)[C@@H](O)C[C@H](C(=O)NCC([14CH3])([14CH3])C(N)=O)C(C)C)C(C)C)ccc1OC.O=C(O)/C=C/C(=O)O`, the t1/2 in data set [8] came out at 39.5 h. Further, the Radiolabel recovery in data set [9] is 75%; in data set [10] it was 69.49%; in data set [11], “OUTCOME = Observed/Most of the radioactivity administered was excreted during first 24h after administration and the main route of excretion was the faecal pathway”; in data set [12] it was 93.08%; in [15] it was “OUTCOME = Observed, VALUE = Highest radioactivity concentration was observed”; in data set [16], “OUTCOME = Detected”. Moreover, the Radiolabel recovery result in data set [17] is “OUTCOME = Detected”. Besides, the CL in data set [13] worked out at 3.5 µL·min/nmol. In addition, the Cmax in [14] came out at 1090 nM. The AUC normalised in data set [18] is given as 52.92 (umol.h/L)/(mg/kg).
Broadly, the Tmax is the time at which the peak concentration occurs. One may read the AUC(0-t) as the area under the concentration-time curve up to a stated or last time point. Read a low AUC(0-t) as less exposure. With `COCCCOc1cc(C[C@@H](C[C@H](N)[C@@H](O)C[C@H](C(=O)NCC(C)(C)C(N)=O)C(C)C)C(C)C)ccc1OC.COCCCOc1cc(C[C@@H](C[C@H](N)[C@@H](O)C[C@H](C(=O)NCC(C)(C)C(N)=O)C(C)C)C(C)C)ccc1OC.O=C(O)/C=C/C(=O)O` [ALISKIREN FUMARATE], the highest concentration (Cmax) in data set [19] was determined as 146 ng/mL; in data set [21], 39.1 ng/mL; in [26] it was 9670 ng/mL. Besides, the Tmax in data set [20] worked out at 2.1 h; in [29] it was 3 h; in data set [30], 3 h. Also, the Cmax normalised in data set [22] was 2.92 (umol/L)/(mg/kg); in data set [27] it was 0.072 (ug/ml)/(mg/kg). Moreover, the Change in hematology result in data set [23] is on record as “OUTCOME = Hematological parameter values did not differ from control values. No animals died during the study”. Also, the BUN_CHANGE_BY in data set [24] is 401%. For the same compound, in [25], the CREAT_CHANGE_BY amounted to 130%. Besides, the Change in spermatogenesis result in data set [28] was “OUTCOME = No abnormalities. No animals died during the study”. Besides, the exposure AUC(0-t) at 24 h in data set [31] worked out at 2280 ng·h/mL; in data set [32], 58100 ng·h/mL; in data set [33], 84000 ng·h/mL. Besides, in data set [34], the AUC normalised was 1.12 ((ug.h.ml-1)/(mg/kg).
